# Activity calls are given as the source filed them.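 How the source made its calls: active means compounds lowering cell viability whose fitted half-effect dose is at most ten times the top tested dose; inconclusive means flat curve with moderate viability loss, or a poor fit; inactive means the rest.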
# Experiments:
# [1] = test system: DRD HRASV12-transformed BJ fibroblasts viability, Alamar Blue, 48 h; experiment: viability loss in DRD cells, dose response, cell-based, secondary screen, plate reader, dry powder, set 4 (AID 540315)
# [2] = as above; settings: DRD HRASV12-transformed BJ fibroblasts viability, Alamar Blue, 48 h; at 48 µM (top of the series)
SMILES,AC50 [1] [µM],"activity change, negative = viability loss [2]"
O=C(c1ccc([N+](=O)[O-])o1)N1CCN(C(c2ccc(F)cc2)c2ccc(F)cc2)CC1,10.7,
Cc1onc(C(=O)N2CCN(C(c3ccc(F)cc3)c3ccc(F)cc3)CC2)c1[N+](=O)[O-],0.784,
Cc1onc(C(=O)N2CCCN(C(c3ccccc3)c3ccccc3)CC2)c1[N+](=O)[O-],3.87,
Cc1onc(C(=O)N2CCN(C(c3ccccc3)c3ccc(Cl)cc3)CC2)c1[N+](=O)[O-] (centres undefined),0.585,
CCOc1ccccc1-n1c(C(C)N2CCN(C(=O)COc3ccc(Cl)cc3)CC2)nc2ccccc2c1=O (centres undefined),2.16,
Cc1onc(C(=O)N2CCN(Cc3ccccc3)CC2)c1[N+](=O)[O-],,-2.4% (inactive)
Cc1onc(C(=O)N2CCN(C(c3ccccc3)c3ccccc3)CC2)c1[N+](=O)[O-],2.64,
O=C(NCCNC(c1ccccc1)c1ccccc1)c1ccc([N+](=O)[O-])o1,5.59,
COc1ccc(C(c2ccc(OC)cc2)N2CCN(C(=O)c3ccc([N+](=O)[O-])o3)CC2)cc1,5.84,
COC(=O)c1ccc([C@@H]2c3[nH]c4ccccc4c3C[C@@H](C(=O)OC)N2C(=O)CCl)cc1,0.604,
Cc1onc(C(=O)N2CCN(C(c3ccc(Cl)cc3)c3ccc(Cl)cc3)CC2)c1[N+](=O)[O-],0.287,
COc1ccc(C(c2ccc(OC)cc2)N2CCN(C(=O)c3noc(C)c3[N+](=O)[O-])CC2)cc1,4.37,
Cc1onc(CC(=O)N2CCN(C(c3ccc(F)cc3)c3ccc(F)cc3)CC2)c1[N+](=O)[O-],30.9,
Cc1onc(C(=O)NCCNC(c2ccccc2)c2ccccc2)c1[N+](=O)[O-],43.8,
